Laboratory results from patent publication US11524966B1 (Valo Early Discovery, Inc., priority 2017, dated 2022).
Read-outs that look alike come from different tables or passages of the source.

Biological target: T1, USP25 (USP25-His6, Boston Biochem E-546) (Homo sapiens, UniProt Q9UHP3)
T1 construct: His6; purchased Boston Biochem E-546
T1 sequence (Q9UHP3 1-1055): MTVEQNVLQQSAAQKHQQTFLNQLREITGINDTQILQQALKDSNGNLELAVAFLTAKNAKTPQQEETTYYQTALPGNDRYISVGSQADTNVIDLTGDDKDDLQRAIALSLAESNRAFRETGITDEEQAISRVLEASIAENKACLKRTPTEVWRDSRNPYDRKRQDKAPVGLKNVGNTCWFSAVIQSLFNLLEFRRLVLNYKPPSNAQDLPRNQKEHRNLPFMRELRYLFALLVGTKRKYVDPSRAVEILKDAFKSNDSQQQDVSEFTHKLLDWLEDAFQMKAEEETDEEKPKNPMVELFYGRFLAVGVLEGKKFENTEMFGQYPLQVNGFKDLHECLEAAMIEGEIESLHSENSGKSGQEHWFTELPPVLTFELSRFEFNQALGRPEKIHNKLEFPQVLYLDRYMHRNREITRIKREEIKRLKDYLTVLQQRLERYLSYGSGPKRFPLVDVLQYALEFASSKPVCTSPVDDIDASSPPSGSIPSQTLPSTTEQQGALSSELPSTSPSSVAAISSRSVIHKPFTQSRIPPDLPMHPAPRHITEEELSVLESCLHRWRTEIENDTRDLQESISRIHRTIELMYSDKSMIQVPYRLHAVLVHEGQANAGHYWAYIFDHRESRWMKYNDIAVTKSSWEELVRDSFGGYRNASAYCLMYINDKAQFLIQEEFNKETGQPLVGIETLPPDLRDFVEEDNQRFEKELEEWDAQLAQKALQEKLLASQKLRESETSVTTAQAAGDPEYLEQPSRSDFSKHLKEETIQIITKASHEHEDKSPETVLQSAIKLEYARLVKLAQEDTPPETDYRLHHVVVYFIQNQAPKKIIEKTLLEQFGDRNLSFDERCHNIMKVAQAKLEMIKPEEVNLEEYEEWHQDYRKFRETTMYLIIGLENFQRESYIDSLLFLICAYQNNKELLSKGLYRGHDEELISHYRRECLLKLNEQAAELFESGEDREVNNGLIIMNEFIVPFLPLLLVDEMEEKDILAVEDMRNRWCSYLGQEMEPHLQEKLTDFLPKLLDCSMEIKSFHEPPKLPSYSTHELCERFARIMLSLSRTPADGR
Test: Ubiquitin-Rhodamine 110 Assay for USP25 Activity, Example A-2
Format: biochemical
Settings: Ubiquitin-Rhodamine 110 assay, read-out: USP25 A-2 IC50 range
In short: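 Steps: compound dilutions (top 25 μM, 3-fold, 10 points) were preincubated 30 min with 75 pM USP25-His6; 25 nM Ub-Rh110 substrate was added under initial-velocity conditions; after 45 min at room temperature, 10 mM citric acid stopped the reaction before fluorescence reading.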

Row | SMILES | IC50 (format Example A-2) [nM] | IC50 (Example A-2) [nM]
1 | Cc1ccc2c(N)c(C(=O)N[C@H]3COc4cc(N5CC6CCC(C5)N6)nc(F)c4C3)sc2n1 [Example 17, N-((3R)-7-(3,8-Diazabicyclo[3.2.1]octan-3-yl)-5-fluoro-3,4-dihydro-2H-pyrano[3,2-c]pyridin-3-yl)-3-amino-6-methylthieno[2,3-b]pyridine-2-carboxamide] | 50 to 200 | –
2 | Cc1cc(C)c2c(N)c(C(=O)N[C@H]3COc4cc(N5CC6CNCC(C5)O6)cc(F)c4C3)sc2n1 [Example 10-13, N-((3R)-7-(9-oxa-3,7-diazabicyclo[3.3.1]nonan-3-yl)-5-fluorochroman-3-yl)-3-amino-4,6-dimethylthieno[2,3-b]pyridine-2-carboxamide] | – | 1 to 50
3 | CO[C@H]1CN(c2ccc3c(n2)CC[C@@H](NC(=O)c2sc4nc(C)cnc4c2N)C3)C[C@@H]1N (single isomer, unassigned) [Example 23-2] | > 2000 | –
4 | Cc1ccc2c(N)c(C(=O)N[C@@H]3COc4cc(N5CCNCC5)c(Cl)cc4C3)sc2n1 (single isomer, unassigned) [Example 13-6] | 50 to 200 | –
5 | Cc1ccc2c(N)c(C(=O)N[C@H]3CCc4cc(N5CCN[C@@H](CO)C5)ccc4C3)sc2n1 (single isomer, unassigned) [Example 7-9] | – | > 2000
6 | Cc1ccc2c(N)c(C(=O)N[C@H]3CCc4c(F)c(N5CC6CNCC(C5)O6)cc(F)c4C3)sc2n1 (single isomer, unassigned) [Example 22-3] | > 2000 | –
7 | Cc1cc(C)c2c(N)c(C(=O)N[C@H]3COc4cc(N5CCNCC5)cc(F)c4C3)sc2n1 [Example 10-9, (R)-3-amino-N-(5-fluoro-7-(piperazin-1-yl)chroman-3-yl)-4,6-dimethylthieno[2,3-b]pyridine-2-carboxamide] | – | 50 to 200
